Experimental data as given in US20250326771A1, “PIPERAZINE DERIVATIVES USEFUL IN HIV THERAPY” (VIIV HEALTHCARE COMPANY, priority 2022, published 2025).

How the values were obtained:
[1] = tested on: Jurkat HIV-luciferase clones; experiment: Jurkat latency reversal assay; type: cell-based; settings: Homo sapiens, 48 h; Jurkat latency reversal assay potency; read-out: Jurkat pEC50 (converted)
Method in brief: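 Three pooled Jurkat reporter clones, each with one or two integrated HIV-luciferase proviruses, 5,000 cells/well; duplicate 14-point titrations starting at 10 μM; 48 h, 37° C, then Steady-Glo luminescence; four-parameter logistic analysis yields EC50 and percent maximal activation against DMSO vehicle.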

[2] = biological target: cIAP1-BIR3 (Homo sapiens (Human), UniProt Q13490); experiment: BIR binding assay (FRET competition), cIAP1 BIR3; settings: for cIAP1 BIR3 vs BIR2 separation window: fold separation (FS) for cIAP1
Method in brief: (§1)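 His-tagged domains (50 nM cIAP1-BIR3, 325 nM cIAP2-BIR2, 325 nM cIAP1-BIR2, 100 nM XIAP-BIR3) compete with compounds for a 200 nM AlexaFluor647-labelled SMAC/DIABLO peptide in HEPES buffer, pH 7.4, for 60 min. Then 2 nM Eu-W1024 is added for 30 min. The 615/665 nm ratio is fit by four-parameter fit to give IC50.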

[3] = biological target: cIAP1-BIR2 (Homo sapiens (Human), UniProt Q13490); experiment: BIR binding assay (FRET competition), cIAP1 BIR2
Method in brief: as §1

[4] = biological target: cIAP2-BIR3 (Homo sapiens (Human), UniProt Q13489); experiment: BIR binding assay (FRET competition), cIAP2 BIR3; settings: for cIAP2 BIR3 vs BIR2 separation window: fold separation (FS) for cIAP2
[5] = biological target: cIAP2-BIR2 (Homo sapiens (Human), UniProt Q13489); experiment: BIR binding assay (FRET competition), cIAP2 BIR2
Method in brief: as §1

[6] = biological target: XIAP-BIR3 (Homo sapiens (Human), UniProt P98170); experiment: BIR binding assay (FRET competition), XIAP BIR3
Method in brief: as §1

Chain of cIAP1-BIR2 (Q13490 173-257): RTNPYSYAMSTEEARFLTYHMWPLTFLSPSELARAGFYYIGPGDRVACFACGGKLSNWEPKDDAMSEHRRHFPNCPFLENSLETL
Chain of cIAP1-BIR3 (Q13490 253-363): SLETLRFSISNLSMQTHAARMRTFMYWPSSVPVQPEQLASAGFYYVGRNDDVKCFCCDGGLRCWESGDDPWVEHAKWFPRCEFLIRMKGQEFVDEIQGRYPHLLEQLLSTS
Chain of cIAP2-BIR2 (Q13489 158-242): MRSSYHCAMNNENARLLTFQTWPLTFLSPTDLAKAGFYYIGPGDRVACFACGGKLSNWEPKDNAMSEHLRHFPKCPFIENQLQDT
Chain of XIAP-BIR3 (P98170 241-356): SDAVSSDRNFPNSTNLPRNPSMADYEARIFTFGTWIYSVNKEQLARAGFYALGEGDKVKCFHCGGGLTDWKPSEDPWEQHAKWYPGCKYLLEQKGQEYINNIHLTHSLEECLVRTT
Chain of cIAP2-BIR3 (Q13489 238-349): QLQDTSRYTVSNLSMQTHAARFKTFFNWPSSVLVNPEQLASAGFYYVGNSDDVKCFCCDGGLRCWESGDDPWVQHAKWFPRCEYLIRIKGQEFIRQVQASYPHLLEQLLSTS

Structure (SMILES) | EC50 [1] [nM] | IC50 [2] [nM] | cIAP1 BIR3 vs BIR2 separation window [2] | IC50 [3] [nM] | IC50 [4] [nM] | cIAP2 BIR3 vs BIR2 separation window [4] | IC50 [5] [nM] | IC50 [6] [nM]
C[C@@H]1CN(CC(=O)N2CC(C)(C)c3[nH]c(=O)c(Cc4ccc(Cl)cc4O)cc32)[C@@H](CN2CCO[C@H](C(=O)NCc3ccc(CNC(=O)[C@@H]4CN(C[C@H]5CN[C@H](C)CN5CC(=O)N5CC(C)(C)c6[nH]c(=O)c(Cc7ccc(Cl)cc7O)cc65)CCO4)cc3)C2)CN1 [Compound 164, (2S,2′S)-N,N′-(1,4-phenylenebis(methylene)) bis(4-(((2R,5R)-1-(2-(6-(4-chloro-2-hydroxybenzyl)-3,3-dimethyl-5-oxo-2,3,4,5-tetrahydro-1H-pyrrolo[3,2-b]pyridin-1-yl)-2-oxoethyl)-5-methylpiperazin-2-yl)methyl)morpholine-2-carboxamide)] | 63.1 to 316 | 1.38 to 7.94 | ++ (1,000>FS>100) | 22.4 to 1000 | 1.38 to 7.94 | ++ (1,000>FS>100) | 22.4 to 1000 | 7.94 to 15.8
COC(=O)c1cc(F)ccc1Cc1cnc2c(c1)N(C(=O)CN1C[C@@H](C)NC[C@@H]1CN1CCO[C@H](COc3cccc(OC[C@@H]4CN(C[C@H]5CN[C@H](C)CN5CC(=O)N5CC(C)(C)c6ncc(Cc7ccc(F)cc7C(=O)OC)cc65)CCO4)c3)C1)CC2(C)C [Compound 152] | 63.1 to 316 | 7.94 to 15.8 | +++ (10,000>FS>1,000) | 3160 to 10000 | 7.94 to 15.8 | +++ (10,000>FS>1,000) | 3160 to 10000 | 31.6 to 501
C[C@@H]1CN(CC(=O)N2CC(C)(C)c3[nH]c(=O)c(Cc4ccc(Cl)cc4C#N)cc32)[C@@H](CN2CCO[C@H](C(=O)NCc3ccc(CNC(=O)[C@@H]4CN(C[C@H]5CN[C@H](C)CN5CC(=O)N5CC(C)(C)c6[nH]c(=O)c(Cc7ccc(Cl)cc7C#N)cc65)CCO4)cc3)C2)CN1 [Compound 171, (2S,2′S)-N,N′-(1,4-phenylenebis(methylene)) bis(4-(((2R,5R)-1-(2-(6-(4-chloro-2-cyanobenzyl)-3,3-dimethyl-5-oxo-2,3,4,5-tetrahydro-1H-pyrrolo[3,2-b]pyridin-1-yl)-2-oxoethyl)-5-methylpiperazin-2-yl)methyl)morpholine-2-carboxamide)] | 12.6 to 63.1 | 1.38 to 7.94 | ++ (1,000>FS>100) | 22.4 to 1000 | 1.38 to 7.94 | ++ (1,000>FS>100) | 22.4 to 1000 | 31.6 to 501
CC(C)c1ccccc1Cc1cc2c([nH]c1=O)C(C)(C)CN2C(=O)CN1C[C@@H](C)NC[C@@H]1CN1CCO[C@H](C(=O)NCc2ccc(CNC(=O)[C@@H]3CN(C[C@H]4CN[C@H](C)CN4CC(=O)N4CC(C)(C)c5[nH]c(=O)c(Cc6ccccc6C(C)C)cc54)CCO3)cc2)C1 [Compound 173, (2S,2′S)-N,N′-(1,4-phenylenebis(methylene)) bis(4-(((2R,5R)-1-(2-(6-(2-isopropylbenzyl)-3,3-dimethyl-5-oxo-2,3,4,5-tetrahydro-1H-pyrrolo[3,2-b]pyridin-1-yl)-2-oxoethyl)-5-methylpiperazin-2-yl)methyl)morpholine-2-carboxamide)] | 63.1 to 316 | 31.6 to 501 | +++ (10,000>FS>1,000) | 10000 to 51300 | 15.8 to 31.6 | +++ (10,000>FS>1,000) | 3160 to 10000 | 31.6 to 501
C[C@@H]1CN(CC(=O)N2CC(C)(C)c3[nH]c(=O)c(Cc4ccc(F)c(F)c4F)cc32)[C@@H](CN2CCO[C@H](C(=O)NCc3ccc(CNC(=O)[C@@H]4CN(C[C@H]5CN[C@H](C)CN5CC(=O)N5CC(C)(C)c6[nH]c(=O)c(Cc7ccc(F)c(F)c7F)cc65)CCO4)cc3)C2)CN1 [Compound 178, (2S,2′S)-N,N′-(1,4-phenylenebis(methylene)) bis(4-(((2R,5R)-1-(2-(3,3-dimethyl-5-oxo-6-(2,3,4-trifluorobenzyl)-2,3,4,5-tetrahydro-1H-pyrrolo[3,2-b]pyridin-1-yl)-2-oxoethyl)-5-methylpiperazin-2-yl)methyl)morpholine-2-carboxamide)] | 0.49 to 12.6 | 15.8 to 31.6 | +++ (10,000>FS>1,000) | 1000 to 3160 | 7.94 to 15.8 | +++ (10,000>FS>1,000) | 1000 to 3160 | 15.8 to 31.6
COc1cc(F)ccc1Cc1cnc2c(c1)N(C(=O)CN1C[C@@H](C)NC[C@@H]1CN1CCO[C@H](COc3cccc(OC[C@@H]4CN(C[C@H]5CN[C@H](C)CN5CC(=O)N5CC(C)(C)c6ncc(Cc7ccc(F)cc7OC)cc65)CCO4)c3)C1)CC2(C)C [Compound 151] | 63.1 to 316 | 15.8 to 31.6 | +++ (10,000>FS>1,000) | 3160 to 10000 | 7.94 to 15.8 | +++ (10,000>FS>1,000) | 3160 to 10000 | 31.6 to 501
C[C@@H]1CN(CC(=O)N2CC(C)(C)c3[nH]c(=O)c(Cc4ccc(F)cc4)cc32)[C@@H](CN2CCO[C@H](COc3ccc(F)c(OC[C@@H]4CN(C[C@H]5CN[C@H](C)CN5CC(=O)N5CC(C)(C)c6[nH]c(=O)c(Cc7ccc(F)cc7)cc65)CCO4)c3F)C2)CN1 [Example 74, 1,1′-(2,2′-((3R,3′R,6R,6′R)-(((2S,2'S)-(((2,4-difluoro-1,3-phenylene)bis(oxy))bis(methylene))bis(morpholine-2,4-diyl))bis(methylene))bis(3-methylpiperazine-6,1-diyl))bis(acetyl))bis(6-(4-fluorobenzyl)-3,3-dimethyl-1,2,3,4-tetrahydro-5H-pyrrolo[3,2-b]pyridin-5-one)] | 0.49 to 12.6 | 1.38 to 7.94 | +++ (10,000>FS>1,000) | 1000 to 3160 | 1.38 to 7.94 | +++ (10,000>FS>1,000) | 1000 to 3160 | 1.38 to 7.94
C[C@@H]1CN(CC(=O)N2CC(C)(C)c3[nH]c(=O)c(Cc4ccc(Br)cc4)cc32)[C@@H](CN2CCO[C@H](C(=O)NCc3ccc(CNC(=O)[C@@H]4CN(C[C@H]5CN[C@H](C)CN5CC(=O)N5CC(C)(C)c6[nH]c(=O)c(Cc7ccc(Br)cc7)cc65)CCO4)cc3)C2)CN1 [Compound 162, (2S,2′S)-N,N′-(1,4-phenylenebis(methylene)) bis(4-(((2R,5R)-1-(2-(6-(4-bromobenzyl)-3,3-dimethyl-5-oxo-2,3,4,5-tetrahydro-1H-pyrrolo[3,2-b]pyridin-1-yl)-2-oxoethyl)-5-methylpiperazin-2-yl)methyl)morpholine-2-carboxamide)] | 12.6 to 63.1 | 1.38 to 7.94 | ++ (1,000>FS>100) | 22.4 to 1000 | 1.38 to 7.94 | +++ (10,000>FS>1,000) | 22.4 to 1000 | 15.8 to 31.6
C[C@@H]1CN(CC(=O)N2CC(C)(C)c3[nH]c(=O)c(Cc4ccc(F)cc4)cc32)[C@@H](CN2CCO[C@H](COc3cc(C#N)cc(OC[C@@H]4CN(C[C@H]5CN[C@H](C)CN5CC(=O)N5CC(C)(C)c6[nH]c(=O)c(Cc7ccc(F)cc7)cc65)CCO4)c3)C2)CN1 [Example 76, 3,5-bis(((S)-4-(((2R,5R)-1-(2-(6-(4-fluorobenzyl)-3,3-dimethyl-5-oxo-2,3,4,5-tetrahydro-1H-pyrrolo[3,2-b]pyridin-1-yl)-2-oxoethyl)-5-methylpiperazin-2-yl)methyl)morpholin-2-yl)methoxy)benzonitrile] | 0.49 to 12.6 | 7.94 to 15.8 | +++ (10,000>FS>1,000) | 3160 to 10000 | 1.38 to 7.94 | +++ (10,000>FS>1,000) | 1000 to 3160 | 15.8 to 31.6
C[C@@H]1CN(CC(=O)N2CC(C)(C)c3[nH]c(=O)c(Cc4c(F)c(F)c(F)c(F)c4F)cc32)[C@@H](CN2CCO[C@H](C(=O)NCc3ccc(CNC(=O)[C@@H]4CN(C[C@H]5CN[C@H](C)CN5CC(=O)N5CC(C)(C)c6[nH]c(=O)c(Cc7c(F)c(F)c(F)c(F)c7F)cc65)CCO4)cc3)C2)CN1 [Compound 176, (2S,2′S)-N,N′-(1,4-phenylenebis(methylene)) bis(4-(((2R,5R)-1-(2-(3,3-dimethyl-5-oxo-6-((perfluorophenyl)methyl)-2,3,4,5-tetrahydro-1H-pyrrolo[3,2-b]pyridin-1-yl)-2-oxoethyl)-5-methylpiperazin-2-yl)methyl)morpholine-2-carboxamide)] | 0.49 to 12.6 | 31.6 to 501 | ++ (1,000>FS>100) | 3160 to 10000 | 15.8 to 31.6 | +++ (10,000>FS>1,000) | 3160 to 10000 | 31.6 to 501
